In patent US10072026B2, “Crystalline form of 3-((1R,3s,5S)-3-((7-((5-methyl-1H-pyrazol-3-yl)amino)-1,6-naphthyridin-5-yl)amino)-8-azabicyclo[3.2.1]octan-8-yl)propanenitrile” (priority 2015, dated 2018):

Key:
[1] = biological target: JAK1 (Homo sapiens (Human), UniProt P23458); test: LanthaScreen JAK biochemical assay (JAK1)
[2] = biological target: JAK2 (Homo sapiens (Human), UniProt O60674); test: LanthaScreen JAK biochemical assay (JAK2)
[3] = biological target: JAK3 (Homo sapiens (Human), UniProt P52333); test: LanthaScreen JAK biochemical assay (JAK3)
[4] = system: IL-4 induced STAT6 phosphorylation in THP-1 human monocytic cells; test: Cellular JAK potency assay, THP-1
[5] = system: IL-13 induced STAT6 phosphorylation in BEAS-2B human lung epithelial cells; test: AlphaScreen cellular JAK potency assay, BEAS-2B
[6] = THP-1 cells, IL-4 induced STAT6 phosphorylation
[7] = BEAS-2B cells, IL-13 induced STAT6 phosphorylation
[8] = IL-4 induced STAT6 phosphorylation, THP-1 cells

Sequence of JAK1 (P23458 whole entry): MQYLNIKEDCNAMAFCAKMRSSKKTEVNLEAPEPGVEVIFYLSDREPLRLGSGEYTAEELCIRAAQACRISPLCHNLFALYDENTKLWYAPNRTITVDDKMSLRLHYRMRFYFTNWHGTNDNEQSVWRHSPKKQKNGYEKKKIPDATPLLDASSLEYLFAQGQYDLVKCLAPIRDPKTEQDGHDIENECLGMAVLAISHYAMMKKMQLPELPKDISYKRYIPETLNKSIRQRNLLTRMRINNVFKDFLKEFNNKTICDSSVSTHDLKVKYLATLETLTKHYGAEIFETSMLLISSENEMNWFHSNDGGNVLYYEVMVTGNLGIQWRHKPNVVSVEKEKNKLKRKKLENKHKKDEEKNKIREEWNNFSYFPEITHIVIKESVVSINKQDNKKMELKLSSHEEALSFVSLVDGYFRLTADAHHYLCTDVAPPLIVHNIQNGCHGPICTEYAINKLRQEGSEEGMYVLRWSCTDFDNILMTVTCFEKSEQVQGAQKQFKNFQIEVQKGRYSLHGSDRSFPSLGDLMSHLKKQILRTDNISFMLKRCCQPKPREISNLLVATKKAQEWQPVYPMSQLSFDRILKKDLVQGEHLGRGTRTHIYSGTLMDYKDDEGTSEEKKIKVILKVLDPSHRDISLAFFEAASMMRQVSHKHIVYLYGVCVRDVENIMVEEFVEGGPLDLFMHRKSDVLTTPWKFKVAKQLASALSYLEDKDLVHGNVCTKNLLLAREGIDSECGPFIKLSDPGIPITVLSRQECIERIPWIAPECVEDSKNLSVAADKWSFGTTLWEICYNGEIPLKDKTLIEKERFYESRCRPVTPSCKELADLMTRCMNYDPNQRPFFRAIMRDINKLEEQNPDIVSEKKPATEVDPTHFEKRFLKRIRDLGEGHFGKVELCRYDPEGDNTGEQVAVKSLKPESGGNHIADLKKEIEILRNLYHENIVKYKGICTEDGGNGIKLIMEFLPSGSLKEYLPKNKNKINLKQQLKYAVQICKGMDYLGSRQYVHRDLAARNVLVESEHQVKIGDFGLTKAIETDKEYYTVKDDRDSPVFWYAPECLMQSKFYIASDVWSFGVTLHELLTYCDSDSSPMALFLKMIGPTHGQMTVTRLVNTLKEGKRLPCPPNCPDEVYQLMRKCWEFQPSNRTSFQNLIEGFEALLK
Sequence of JAK2 (O60674 whole entry): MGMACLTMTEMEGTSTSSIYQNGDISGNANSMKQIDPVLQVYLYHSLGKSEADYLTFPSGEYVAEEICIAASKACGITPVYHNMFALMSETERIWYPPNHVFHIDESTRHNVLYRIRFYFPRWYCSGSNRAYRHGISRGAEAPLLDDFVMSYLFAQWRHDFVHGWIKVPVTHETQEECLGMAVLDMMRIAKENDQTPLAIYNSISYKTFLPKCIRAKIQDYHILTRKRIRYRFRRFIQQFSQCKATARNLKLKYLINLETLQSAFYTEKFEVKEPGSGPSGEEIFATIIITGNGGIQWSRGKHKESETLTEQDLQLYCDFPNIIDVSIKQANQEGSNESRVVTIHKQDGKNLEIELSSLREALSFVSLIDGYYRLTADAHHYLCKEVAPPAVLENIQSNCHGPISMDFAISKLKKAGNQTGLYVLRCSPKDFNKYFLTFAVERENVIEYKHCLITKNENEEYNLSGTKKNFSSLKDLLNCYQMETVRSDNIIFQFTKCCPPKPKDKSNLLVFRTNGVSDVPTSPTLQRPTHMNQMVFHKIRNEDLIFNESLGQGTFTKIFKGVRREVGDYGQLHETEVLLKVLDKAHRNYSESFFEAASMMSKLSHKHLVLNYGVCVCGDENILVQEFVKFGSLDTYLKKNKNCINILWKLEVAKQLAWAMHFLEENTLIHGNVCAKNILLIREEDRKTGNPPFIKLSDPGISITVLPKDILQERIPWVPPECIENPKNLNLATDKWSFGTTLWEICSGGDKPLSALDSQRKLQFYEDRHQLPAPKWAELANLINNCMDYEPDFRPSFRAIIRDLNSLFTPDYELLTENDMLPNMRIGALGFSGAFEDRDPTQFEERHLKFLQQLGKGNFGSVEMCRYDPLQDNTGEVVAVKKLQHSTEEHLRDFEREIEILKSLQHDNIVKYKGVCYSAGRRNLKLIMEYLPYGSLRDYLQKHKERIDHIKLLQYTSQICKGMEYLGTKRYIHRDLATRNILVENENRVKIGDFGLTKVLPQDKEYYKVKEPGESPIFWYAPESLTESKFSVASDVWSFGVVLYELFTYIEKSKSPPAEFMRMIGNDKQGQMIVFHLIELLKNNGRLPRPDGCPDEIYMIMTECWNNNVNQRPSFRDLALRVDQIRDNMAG

Row | Compound | JAK 1 (pKi) [1] | JAK 2 (pKi) [2] | JAK 3 (pKi) [3] | THP-1 IL4 pIC50 [4, 6] | BEAS2B pIC50 [5, 7] | THP-1 IL4 pIC50 [4, 8] | BEAS2B pIC50 ([5]; IL-13 induced STAT6 phosphorylation, BEAS-2B cells)
1 | Cc1cnc2c(F)c(Nc3cc(C)[nH]n3)nc(N[C@@H]3C[C@H]4CCC[C@@H](C3)N4S(=O)(=O)c3cccnc3)c2c1 [Example 8-24] | B (B represents a pKi value between 9 and 10 (Ki between 1 nM and 0.1 nM)) | B (B represents a pKi value between 9 and 10 (Ki between 1 nM and 0.1 nM)) | C (C represents a pKi value between 7 and 9 (Ki between 100 nM and 1 nM)) | B (B represents a pEC50 value between 6.7 and 7.5 (EC50 between 200 nM and 32 nM)) | B (B represents a pEC50 value between 6.7 and 7.5 (EC50 between 200 nM and 32 nM)) | – | –
2 | COc1cnc2cc(Nc3cc(C)[nH]n3)nc(N[C@@H]3C[C@H]4CC[C@@H](C3)N4C(=O)OCC(C)C)c2c1 [Example 6-25] | – | – | C (C represents a pKi value between 7 and 9 (Ki between 100 nM and 1 nM)) | B (B represents a pEC50 value between 6.7 and 7.5 (EC50 between 200 nM and 32 nM)) | A (A represents a pEC50 value≥7.5 (EC50≤32 nM)) | – | –
3 | C=CCOC(=O)N1[C@@H]2CC[C@H]1C[C@H](Nc1nc(Nc3cc(C)[nH]n3)cc3nc(OC)ccc13)C2 [Example 5-7] | B (B represents a pKi value between 9 and 10 (Ki between 1 nM and 0.1 nM)) | – | C (C represents a pKi value between 7 and 9 (Ki between 100 nM and 1 nM)) | – | – | B (B represents a pEC50 value between 6.7 and 7.5 (EC50 between 200 nM and 32 nM)) | A (A represents a pEC50 value≥7.5 (EC50≤32 nM))
4 | Cc1cc(Nc2cc3ncc(S(C)(=O)=O)cc3c(N[C@@H]3C[C@H]4CC[C@@H](C3)N4C(=O)CC#N)n2)n[nH]1 [Example 6-51] | B (B represents a pKi value between 9 and 10 (Ki between 1 nM and 0.1 nM)) | B (B represents a pKi value between 9 and 10 (Ki between 1 nM and 0.1 nM)) | C (C represents a pKi value between 7 and 9 (Ki between 100 nM and 1 nM)) | C (C represents a pEC50 value<6.7 (EC50>200 nM)) | – | – | –
5 | Cc1cc(Nc2cc3ncccc3c(N[C@@H]3C[C@H]4CCC[C@@H](C3)N4Cc3ccc(O)cc3)n2)n[nH]1 [Example 1-50] | A (A represents a pKi value≥10 (Ki≤0.1 nM)) | A (A represents a pKi value≥10 (Ki≤0.1 nM)) | C (C represents a pKi value between 7 and 9 (Ki between 100 nM and 1 nM)) | – | – | B (B represents a pEC50 value between 6.7 and 7.5 (EC50 between 200 nM and 32 nM)) | –
6 | COC(=O)CCN1[C@@H]2CCC[C@H]1C[C@H](Nc1nc(Nc3cc(C)[nH]n3)cc3ncccc13)C2 [Example 1-33] | B (B represents a pKi value between 9 and 10 (Ki between 1 nM and 0.1 nM)) | B (B represents a pKi value between 9 and 10 (Ki between 1 nM and 0.1 nM)) | C (C represents a pKi value between 7 and 9 (Ki between 100 nM and 1 nM)) | – | – | C (C represents a pEC50 value<6.7 (EC50>200 nM)) | –
7 | Cc1cc(Nc2nc(N[C@@H]3C[C@H]4CC[C@@H](C3)N4CCC#N)c3cccnc3c2F)n[nH]1 [Example 8-1] | B (B represents a pKi value between 9 and 10 (Ki between 1 nM and 0.1 nM)) | B (B represents a pKi value between 9 and 10 (Ki between 1 nM and 0.1 nM)) | C (C represents a pKi value between 7 and 9 (Ki between 100 nM and 1 nM)) | B (B represents a pEC50 value between 6.7 and 7.5 (EC50 between 200 nM and 32 nM)) | – | – | –
8 | Cc1cnc2cc(Nc3cc(C)[nH]n3)nc(N[C@@H]3C[C@H]4CCC[C@@H](C3)N4CCC#N)c2c1 [Example 6-6] | – | A (A represents a pKi value≥10 (Ki≤0.1 nM)) | B (B represents a pKi value between 9 and 10 (Ki between 1 nM and 0.1 nM)) | A (A represents a pEC50 value≥7.5 (EC50≤32 nM)) | A (A represents a pEC50 value≥7.5 (EC50≤32 nM)) | – | –
